Among the data in patent publication US20250129070A1, “BIFUNCTIONAL ANDROGEN RECEPTOR COMPOUNDS” (priority 2023, published 2025) are IC50 and EC50 values, retold here.

Structures are written as SMILES.

In one assay the test system is VCaP cells. Description: VCaP growth inhibition assay. To be noted: 30 pM R1881, 9 days, CTG. The assay is classed as cell-based. The essentials:
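VCaP cells in phenol red-free DMEM/5% CSS, pre-incubated 72 h, then stimulated with R1881 (final 30 pM) and treated with 1:5 serial dilutions (final 100 nM to 10 fM) for 9 days at 37 °C. Viability by CellTiter-Glo luminescence; IC50 from 4-parameter logistic fit of RLU vs concentration.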

A further assay relates to AR / CBP ternary complex. Put plainly: Ternary complex formation assay (sandwich ELISA, AR capture / CBP detection) in VCaP cell lysates. The following applies: 1.5 hours treatment, sandwich ELISA (AR capture, CBP or p300 detection). Type of assay: cell-based. In short, it runs like this:
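VCaP cells (50K/well, 5% charcoal-stripped FBS, ≥3 days) treated with bifunctional compound for 1.5 h, then lysed 30 min at 4 °C. AR captured on anti-AR (AR 441) plates; bound CBP or p300 detected by rabbit mAb plus HRP secondary. QuantaRed chemifluorescence read at ex 570/em 585, immediately and at 5 and 15 min.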
(In general: ELISA stands for enzyme-linked immunosorbent assay.)

As usually defined, the IC50 is the concentration that gives 50% inhibition. A higher IC50 goes with weaker potency in that assay. As usually defined, the EC50 is the concentration at which the effect is half-maximal. A lower EC50 goes with higher potency in that assay.

For `COc1cc(OC2C(C)(C)C(NC(=O)c3ccc(N4CC5(CCC(C6CCC(n7nc(N8CCCc9cc(-c%10cnn(C)c%10)c(C(F)F)cc98)c8c7CCN(C(C)=O)C8)CC6)CC5)C4)cc3)C2(C)C)ccc1C#N` (stereo not shown) [Compound 380, 4-[7-[4-[5-acetyl-3-[7-(difluoromethyl)-6-(1-methylpyrazol-4-yl)-3,4-dihydro-2H-quinolin-1-yl]-6,7-dihydro-4Hpyrazolo[4,3-c]pyridin-1-yl]cyclohexyl]-2-azaspiro[3.5]nonan-2-yl]-N-[3-(4-cyano-3-methoxy-phenoxy)-2,2,4,4-tetramethyl-cyclobutyl]benzamide], in the assay on VCaP cells, the IC50 is 1 to 100 nM. Moreover, the EC50 with AR / CBP ternary complex lay in the range of 1 to 10 nM.
The matching figures for `Cn1c(=O)n(C)c2cc(N3CCCc4cc(-c5ccc(CCC6CCN(c7ncc(C(=O)NC8C(C)(C)C(Oc9ccc(C#N)c(Cl)c9)C8(C)C)cn7)CC6)nc5)c(C(F)F)cc43)ccc21` (stereo not shown) [Compound 233, N-[3-(3-chloro-4-cyano-phenoxy)-2,2,4,4-tetramethyl-cyclobutyl]-2-[4-[2-[5-[7-(difluoromethyl)-1-(1,3-dimethyl-2-oxo-benzimidazol-5-yl)-3,4-dihydro-2H-quinolin-6-yl]-2-pyridyl]ethyl]-1-piperidyl]pyrimidine-5-carboxamide]: over 100 nM and 1 to 10 nM.
In the case of `CC(=O)N1CCc2c(c(N3CCCc4ccc(C(F)F)cc43)nn2C2CC3(C2)CN(CC2CC4(C2)CN(c2ncc(C(=O)NC5C(C)(C)C(Oc6ccc(C#N)c(Cl)c6)C5(C)C)cn2)C4)C3)C1` (stereo not shown) [Compound 219, 2-[6-[[6-[5-acetyl-3-[7-(difluoromethyl)-3,4-dihydro-2H-quinolin-1-yl]-6,7-dihydro-4H-pyrazolo[4,3-c]pyridin-1-yl]-2-azaspiro[3.3]heptan-2-yl]methyl]-2-azaspiro[3.3]heptan-2-yl]-N-[3-(3-chloro-4-cyano-phenoxy)-2,2,4,4-tetramethyl-cyclobutyl]pyrimidine-5-carboxamide], in the assay with VCaP cells, the IC50 lay within 0.1 to 1 nM. The EC50 with AR / CBP ternary complex was in the range of 1 to 10 nM.
In the assay on VCaP cells, `CC(=O)N1CCc2c(c(N3CCCc4cc(C#N)ccc43)nn2C2CC3(C2)CN(CC2CC4(C2)CN(c2ncc(C(=O)NC5C(C)(C)C(Oc6ccc(C#N)c(Cl)c6)C5(C)C)cn2)C4)C3)C1` (stereo not shown) [Compound 221, 2-[6-[[6-[5-acetyl-3-(6-cyano-3,4-dihydro-2H-quinolin-1-yl)-6,7-dihydro-4H-pyrazolo[4,3-c]pyridin-1-yl]-2-azaspiro[3.3]heptan-2-yl]methyl]-2-azaspiro[3.3]heptan-2-yl]-N-[3-(3-chloro-4-cyano-phenoxy)-2,2,4,4-tetramethyl-cyclobutyl]pyrimidine-5-carboxamide] gave an IC50 of 1 to 100 nM. This molecule had an EC50 in the assay on AR / CBP ternary complex of 1 to 10 nM.
For `COC1CN(c2ncc(C(=O)NC3C(C)(C)C(Oc4ccc(C#N)c(Cl)c4)C3(C)C)cn2)CCC1CN1CCC(n2nc(N3CCCc4cc(-c5cnn(C)c5)c(C(F)F)cc43)c3c2CCN(C(C)=O)C3)CC1` (stereo not shown) [Compound 329, 2-[4-[[4-[5-acetyl-3-[7-(difluoromethyl)-6-(1-methylpyrazol-4-yl)-3,4-dihydro-2H-quinolin-1-yl]-6,7-dihydro-4H-pyrazolo[4,3-c]pyridin-1-yl]-1-piperidyl]methyl]-3-methoxy-1-piperidyl]-N-[3-(3-chloro-4-cyano-phenoxy)-2,2,4,4-tetramethyl-cyclobutyl]pyrimidine-5-carboxamide] the same measures were at most 0.1 nM and under 1 nM.
For `CC(=O)N1CCc2c(c(Nc3ccc(-c4cnn(C)c4)cc3F)nn2C2CCN(CC3CCN(c4ncc(C(=O)NC5C(C)(C)C(Oc6ccc(C#N)c(Cl)c6)C5(C)C)cn4)CC3)CC2)C1` (stereo not shown) [Compound 186, 2-[4-[[4-[5-acetyl-3-[2-fluoro-4-(1-methylpyrazol-4-yl)anilino]-6,7-dihydro-4H-pyrazolo[4,3-c]pyridin-1-yl]-1-piperidyl]methyl]-1-piperidyl]-N-[3-(3-chloro-4-cyano-phenoxy)-2,2,4,4-tetramethyl-cyclobutyl]pyrimidine-5-carboxamide] the same measures were 0.1 to 1 nM and under 1 nM.
The matching figures for `COc1cc(OC2C(C)(C)C(NC(=O)c3ccc(N4CCN(CCc5ccc(-c6cc7cccc(-c8nn(C9CCOCC9)c9c8CN(C(C)=O)CC9)c7cn6)cn5)CC4)cc3)C2(C)C)ccc1C#N` (stereo not shown) [Compound 250, 4-[4-[2-[5-[8-(5-acetyl-1-tetrahydropyran-4-yl-6,7-dihydro-4H-pyrazolo[4,3-c]pyridin-3-yl)-3-isoquinolyl]-2-pyridyl]ethyl]piperazin-1-yl]-N-[3-(4-cyano-3-methoxy-phenoxy)-2,2,4,4-tetramethyl-cyclobutyl]benzamide]: at most 0.1 nM and under 1 nM.
For the molecule `CC(=O)N1CCc2c(c(-c3cccc4cc(-c5ccc(C(=O)NCCOCc6ncc(C(=O)NC7C(C)(C)C(Oc8ccc(C#N)c(Cl)c8)C7(C)C)cn6)nc5)ncc34)nn2C2CCOCC2)C1` (stereo not shown) [Compound 76, 2-[2-[[5-[8-(5-acetyl-1-tetrahydropyran-4-yl-6,7-dihydro-4H-pyrazolo[4,3-c]pyridin-3-yl)-3-isoquinolyl]pyridine-2-carbonyl]amino]ethoxymethyl]-N-[3-(3-chloro-4-cyano-phenoxy)-2,2,4,4-tetramethyl-cyclobutyl]pyrimidine-5-carboxamide], the IC50 in the assay on VCaP cells is at most 0.1 nM. Besides, the EC50 in the assay with AR / CBP ternary complex was under 1 nM.
The matching figures for `C[C@@H]1CC(=O)Nc2cccc(-c3ccc4c(c3)c(-c3cnn(C)c3)nn4CCN3CCN(c4ncc(C(=O)NC5C(C)(C)C(Oc6ccc(C#N)c(Cl)c6)C5(C)C)cn4)CC3)c2N1` (stereo partly drawn) [Compound 56, N-[3-(3-chloro-4-cyano-phenoxy)-2,2,4,4-tetramethyl-cyclobutyl]-2-[4-[2-[5-[(4R)-4-methyl-2-oxo-1,3,4,5-tetrahydro-1,5-benzodiazepin-6-yl]-3-(1-methylpyrazol-4-yl)indazol-1-yl]ethyl]piperazin-1-yl]pyrimidine-5-carboxamide]: 0.1 to 1 nM and under 1 nM.
Molecule `CC(=O)N1CCc2c(c(N3CCCc4cc(-c5cnn(C)c5)c(C(F)F)cc43)nn2C2CCN(CCOc3ncc(C(=O)NC4C(C)(C)C(Oc5ccc(C#N)c(Cl)c5)C4(C)C)cn3)CC2)C1` (stereo not shown) [Compound 89, 2-[2-[4-[5-acetyl-3-[7-(difluoromethyl)-6-(1-methylpyrazol-4-yl)-3,4-dihydro-2H-quinolin-1-yl]-6,7-dihydro-4H-pyrazolo[4,3-c]pyridin-1-yl]-1-piperidyl]ethoxy]-N-[3-(3-chloro-4-cyano-phenoxy)-2,2,4,4-tetramethyl-cyclobutyl]pyrimidine-5-carboxamide] returned a half-inhibitory concentration (IC50) in the assay on VCaP cells of 0.1 to 1 nM. Besides, the EC50 in the assay on AR / CBP ternary complex was under 1 nM.
For `CC(=O)N1CCc2c(c(N3CCCc4cc(-c5cnn(C)c5)c(C(F)F)cc43)nn2C2CCC(OC3CCN(c4ncc(C(=O)NC5C(C)(C)C(Oc6ccc(C#N)c(Cl)c6)C5(C)C)cn4)CC3)CC2)C1` (stereo not shown) [Compound 338, 2-[4-[4-[5-acetyl-3-[7-(difluoromethyl)-6-(1-methylpyrazol-4-yl)-3,4-dihydro-2H-quinolin-1-yl]-6,7-dihydro-4H-pyrazolo[4,3-c]pyridin-1-yl]cyclohexoxy]-1-piperidyl]-N-[3-(3-chloro-4-cyano-phenoxy)-2,2,4,4-tetramethyl-cyclobutyl]pyrimidine-5-carboxamide] the same measures were 0.1 to 1 nM and under 1 nM.
`COc1cc(OC2C(C)(C)C(NC(=O)c3ccc(N4CCC(N5CCC(n6nc(N7CCCc8cc(-c9cnn(C)c9)c(C(F)F)cc87)c7c6CCN(C(C)=O)C7)CC5)C(F)(F)C4)cc3)C2(C)C)ccc1C#N` (stereo not shown) [Compound 302, 4-[4-[4-[5-acetyl-3-[7-(difluoromethyl)-6-(1-methylpyrazol-4-yl)-3,4-dihydro-2H-quinolin-1-yl]-6,7-dihydro-4H-pyrazolo[4,3-c]pyridin-1-yl]-1-piperidyl]-3,3-difluoro-1-piperidyl]-N-[3-(4-cyano-3-methoxy-phenoxy)-2,2,4,4-tetramethyl-cyclobutyl]benzamide] had an IC50 in the assay on VCaP cells of at most 0.1 nM. The EC50 with AR / CBP ternary complex is under 1 nM.
The matching figures for `CC(=O)N1CCc2c(c(N3CCCc4cc(-c5cnn(C)c5)c(C(F)F)cc43)nn2C2CCN(C3CCC(C#Cc4ncc(C(=O)NC5C(C)(C)C(Oc6ccc(C#N)c(Cl)c6)C5(C)C)cn4)CC3)CC2)C1` (stereo not shown) [Compound 293, 2-[2-[4-[4-[5-acetyl-3-[7-(difluoromethyl)-6-(1-methylpyrazol-4-yl)-3,4-dihydro-2H-quinolin-1-yl]-6,7-dihydro-4H-pyrazolo[4,3-c]pyridin-1-yl]-1-piperidyl]cyclohexyl]ethynyl]-N-[3-(3-chloro-4-cyano-phenoxy)-2,2,4,4-tetramethyl-cyclobutyl]pyrimidine-5-carboxamide]: 0.1 to 1 nM and under 1 nM.
Turning to `COc1cc(OC2C(C)(C)C(NC(=O)c3ccc(N4CCC(CN5CCC(n6nc(N7CCCc8cc(-c9cnn(C)c9)c(C)cc87)c7c6CCN(C(C)=O)C7)CC5)C(C)(C)C4)cc3)C2(C)C)ccc1C#N` (stereo not shown) [Compound 447, 4-[4-[[4-[5-acetyl-3-[7-methyl-6-(1-methylpyrazol-4-yl)-3,4-dihydro-2H-quinolin-1-yl]-6,7-dihydro-4H-pyrazolo[4,3-c]pyridin-1-yl]-1-piperidyl]methyl]-3,3-dimethyl-1-piperidyl]-N-[3-(4-cyano-3-methoxy-phenoxy)-2,2,4,4-tetramethyl-cyclobutyl]benzamide], the IC50 in the assay on VCaP cells was in the range of 0.1 to 1 nM. In the assay on AR / CBP ternary complex, this molecule showed a concentration for a half-maximal effect (EC50) of under 1 nM.
